Data: US20150065440A1 (Progen Pharmaceuticals Limited, priority 2007, published 2015)

How the values were obtained:
HSV-1 = assay: Anti-HSV screening assay (viral plaques), HSV-1; assay type: cell-based; conditions: 100 μg/mL, viral plaques relative to mock treated controls
Procedure: African green monkey kidney (GMK AH1) cells^46 were cultured in Eagle's minimum essential medium (EMEM) supplemented with 2% calf serum, 0.05% Primaton RL substance (Kraft Inc., Norwich, USA) and antibiotics. Human epidermoid carcinoma (HEp-2) cells were cultured in Dulbecco's modified EMEM (DMEM) supplemented with 10% fetal calf serum and antibiotics. […] The RSV strain A-2^50 was used. The RSV stock was prepared as described by Hallak et al.^51 and stored at −70° C. in the presence of 40% sucrose^52.
The viral infectivity (the plaque number-reduction) assay and the plaque size-reduction assay were carried out as described previously^17. […] Subsequently, the cells were washed with 2 mL of EMEM and overlaid with 1% methylcellulose solution in EMEM. The plaques were visualized by staining with crystal violet solution after 2 (HSV-2) or 3 (HSV-1) days of incubation at 37° C. […] When the compounds were screened for anti-HSV or anti-RSV activity, mixtures of 200 PFU of the virus and the test compound (100 μg/mL) in serum-free EMEM were incubated for 10 min at room temperature before addition to cells and during the entire period of viral infection of cells and the development of viral plaques. In the plaque size-reduction assay, the compounds were added to cells (in methylcellulose overlay medium) after 2 h period of virus infection of cells in the absence of the inhibitor. After 2-3 days of incubation at 37° C., the viral plaques were visualized by staining the cells with 1% solution of crystal violet. For each compound tested, the images of twenty neighboring plaques were captured using a Leica DC300 digital camera attached to a Leitz-Wetzlar Diavert microscope. The area of each plaque was determined using IM500 image software (Leica). Similar protocols were used for RSV, except that the assays were performed in HEp-2 cells and DMEM supplemented with 2% heat-inactivated fetal calf serum was used instead of EMEM.

RSV = assay: Virus inactivation assay, RSV; assay type: cell-based; conditions: 15 min at 37° C.
Procedure: Approximately 10^5 plaque-forming units of HSV-1 KOS321 or HSV-2 333 stain and specific concentrations of the test compound in 200 μL of serum-free EMEM were mixed and incubated at 37° C. for 15 min. The mixtures were diluted to the non-inhibitory concentrations of the test compound, and then subjected to the infectious titer determination as described under the viral plaque number-reduction assay. In case of RSV, the assay was carried out in similar manner using DMEM supplemented with 2% heat-inactivated fetal calf serum instead of EMEM. To evaluate the effect of a low pH value or the presence of cervical secretions; the virus (HSV-2 333) and compounds were diluted in a low pH buffer (4.5) or cervical secretions were added to the compound dilutions before mixing with the virus (HSV-2 333). The cervical secretions were prepared from cervical swabs generated from 3 different individuals. The swabs were rinsed with distilled water and centrifuged at 5000×g for 10 min. The supernatant was kept at −20° C. In the case of RSV, the assay was carried out in a similar manner using DMEM supplemented with 2% heat-inactivated fetal calf serum instead of EMEM.

`CC(C)CCCC(C)C1CCC2C3CCC4CC(OC5OC(COS(=O)(=O)O)C(OS(=O)(=O)O)C(OS(=O)(=O)O)C5OC5OC(COS(=O)(=O)O)C(OS(=O)(=O)O)C(OC6OC(COS(=O)(=O)O)C(OS(=O)(=O)O)C(OC7OC(COS(=O)(=O)O)C(OS(=O)(=O)O)C(OS(=O)(=O)O)C7OS(=O)(=O)O)C6OS(=O)(=O)O)C5OS(=O)(=O)O)CCC4(C)C3CCC12C` [Compound 20, 3β-Cholestanyl 2,3,4,6-tetra-O-sodium sulfonato-α-D-mannopyranosyl-(1→3)-2,4,6-tri-O-sodium sulfonato-α-D-mannopyranosyl-(1→3)-2,4,6-tri-O-sodium sulfonato-α-D-mannopyranosyl-(1→2)-3,4,6-tri-O-sodium sulfonato-α-D-mannopyranoside] was tested. Which “Residual infectivity (%) HSV-1” value (HSV-1) did it give?
Its value is 0%.

What about the “Virus-inactivating activity: viral plaques with compound-treated virus relative to mock-treated controls” value (RSV; 4 μg/ml) of the same molecule?
The value was 102.2%.

And the “Virus-inactivating activity: viral plaques with compound-treated virus relative to mock-treated controls” value (RSV; 20 μg/ml)?
Its value is 79.0%.

What about the “Virus-inactivating activity: viral plaques with compound-treated virus relative to mock-treated controls” value (RSV; 100 μg/ml) of the same molecule?
Its value is 13.3%.
